From PubChem BioAssay (NCI)
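Grown in 96-well plates, cells were treated for 48 hours with each compound at five concentrations. Insufficient inhibition: endpoint recorded as highest concentration tested. TGI is the concentration that stops growth completely.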

Columns and labels:
Experiment in all cases: NCI tumour cell line growth inhibition, 48 h
K-562 leukemia = tested on: K-562 leukemia
M14 melanoma = tested on: M14 melanoma
NCI-H522 lung = tested on: NCI-H522 lung
A549 NSCLC = tested on: A549 NSCLC
KM12 colon = tested on: KM12 colon
SN12C renal = tested on: SN12C renal
NCI-H460 lung = tested on: NCI-H460 lung
COLO 205 colon = tested on: COLO 205 colon
HOP-62 NSCLC = tested on: HOP-62 NSCLC
MOLT-4 leukemia = tested on: MOLT-4 leukemia
LOX IMVI melanoma = tested on: LOX IMVI melanoma
CCRF-CEM leukemia = tested on: CCRF-CEM leukemia
OVCAR-8 ovarian = tested on: OVCAR-8 ovarian
SK-MEL-28 melanoma = tested on: SK-MEL-28 melanoma
RXF 393 renal = tested on: RXF 393 renal
NCI-H23 lung = tested on: NCI-H23 lung
RPMI-8226 leukemia = tested on: RPMI-8226 leukemia
HCT-15 colon = tested on: HCT-15 colon
OVCAR-5 ovarian = tested on: OVCAR-5 ovarian
ACHN renal = tested on: ACHN renal
XF 498 CNS = tested on: XF 498 CNS
HT29 colon = tested on: HT29 colon
SF-268 CNS = tested on: SF-268 CNS
M19-MEL melanoma = tested on: M19-MEL melanoma
A498 renal = tested on: A498 renal
CAKI-1 renal = tested on: CAKI-1 renal
SK-MEL-2 melanoma = tested on: SK-MEL-2 melanoma
SF-295 CNS = tested on: SF-295 CNS
786-0 renal = tested on: 786-0 renal
UACC-62 melanoma = tested on: UACC-62 melanoma
SNB-75 CNS = tested on: SNB-75 CNS
SW-620 colon = tested on: SW-620 colon
EKVX NSCLC = tested on: EKVX NSCLC
U251 CNS = tested on: U251 CNS
SNB-19 CNS = tested on: SNB-19 CNS
OVCAR-3 ovarian = tested on: OVCAR-3 ovarian
DLD-1 colon = tested on: DLD-1 colon
SF-539 CNS = tested on: SF-539 CNS
IGROV1 ovarian = tested on: IGROV1 ovarian
HCC-2998 colon = tested on: HCC-2998 colon
UO-31 renal = tested on: UO-31 renal
MALME-3M melanoma = tested on: MALME-3M melanoma
LXFL 529 NSCLC = tested on: LXFL 529 NSCLC
HOP-18 NSCLC = tested on: HOP-18 NSCLC
TK-10 renal = tested on: TK-10 renal
SK-OV-3 ovarian = tested on: SK-OV-3 ovarian
DMS 273 small cell lung = tested on: DMS 273 small cell lung
HL-60(TB) leukemia = tested on: HL-60(TB) leukemia
NCI-H226 lung = tested on: NCI-H226 lung
OVCAR-4 ovarian = tested on: OVCAR-4 ovarian
KM20L2 colon = tested on: KM20L2 colon
SK-MEL-5 melanoma = tested on: SK-MEL-5 melanoma
DMS 114 small cell lung = tested on: DMS 114 small cell lung
SR leukemia = tested on: SR leukemia
HCT-116 colon = tested on: HCT-116 colon
RXF-631 renal = tested on: RXF-631 renal
UACC-257 melanoma = tested on: UACC-257 melanoma
SNB-78 CNS = tested on: SNB-78 CNS

## O=C(O)CSc1n[nH]c(-c2ccccc2)n1
K-562 leukemia
  TGI: > 100 µM
M14 melanoma
  TGI: > 100 µM
NCI-H522 lung
  TGI: > 100 µM
A549 NSCLC
  TGI: > 100 µM
KM12 colon
  TGI: > 100 µM
SN12C renal
  TGI: > 100 µM
NCI-H460 lung
  TGI: > 100 µM
COLO 205 colon
  TGI: > 100 µM
HOP-62 NSCLC
  TGI: > 100 µM
MOLT-4 leukemia
  TGI: > 100 µM
LOX IMVI melanoma
  TGI: > 100 µM
CCRF-CEM leukemia
  TGI: > 100 µM
OVCAR-8 ovarian
  TGI: > 100 µM
SK-MEL-28 melanoma
  TGI: > 100 µM
RXF 393 renal
  TGI: > 100 µM
NCI-H23 lung
  TGI: > 100 µM
RPMI-8226 leukemia
  TGI: > 100 µM
HCT-15 colon
  TGI: > 100 µM
OVCAR-5 ovarian
  TGI: > 100 µM
ACHN renal
  TGI: > 100 µM
XF 498 CNS
  TGI: > 100 µM
HT29 colon
  TGI: > 100 µM
SF-268 CNS
  TGI: > 100 µM
M19-MEL melanoma
  TGI: > 100 µM
A498 renal
  TGI: > 100 µM
CAKI-1 renal
  TGI: > 100 µM
SK-MEL-2 melanoma
  TGI: > 100 µM
SF-295 CNS
  TGI: > 100 µM
786-0 renal
  TGI: > 100 µM
UACC-62 melanoma
  TGI: > 100 µM
SNB-75 CNS
  TGI: > 100 µM
SW-620 colon
  TGI: > 100 µM
EKVX NSCLC
  TGI: > 100 µM
U251 CNS
  TGI: > 100 µM
SNB-19 CNS
  TGI: > 100 µM
OVCAR-3 ovarian
  TGI: > 100 µM
DLD-1 colon
  TGI: > 100 µM
SF-539 CNS
  TGI: > 100 µM
IGROV1 ovarian
  TGI: > 100 µM
HCC-2998 colon
  TGI: > 100 µM
UO-31 renal
  TGI: > 100 µM
MALME-3M melanoma
  TGI: > 100 µM
LXFL 529 NSCLC
  TGI: > 100 µM
HOP-18 NSCLC
  TGI: > 100 µM
TK-10 renal
  TGI: > 100 µM
SK-OV-3 ovarian
  TGI: > 100 µM
DMS 273 small cell lung
  TGI: > 100 µM
HL-60(TB) leukemia
  TGI: > 100 µM
NCI-H226 lung
  TGI: > 100 µM
OVCAR-4 ovarian
  TGI: > 100 µM
KM20L2 colon
  TGI: > 100 µM
SK-MEL-5 melanoma
  TGI: > 100 µM

## CC(=O)n1c2c(c(=O)n1-c1ccccc1)S(=O)CCC2 (centres undefined)
K-562 leukemia
  TGI: > 100 µM
M14 melanoma
  TGI: > 100 µM
DMS 114 small cell lung
  TGI: > 100 µM
NCI-H522 lung
  TGI: 16.3 µM
A549 NSCLC
  TGI: > 100 µM
KM12 colon
  TGI: > 100 µM
SR leukemia
  TGI: 22.8 µM
SN12C renal
  TGI: > 100 µM
NCI-H460 lung
  TGI: > 100 µM
COLO 205 colon
  TGI: > 100 µM
HOP-62 NSCLC
  TGI: 28.2 µM
MOLT-4 leukemia
  TGI: 6.9 µM
LOX IMVI melanoma
  TGI: > 100 µM
CCRF-CEM leukemia
  TGI: 26.4 µM
OVCAR-8 ovarian
  TGI: > 100 µM
SK-MEL-28 melanoma
  TGI: > 100 µM
RXF 393 renal
  TGI: > 68.4 µM
HCT-116 colon
  TGI: > 100 µM
NCI-H23 lung
  TGI: > 100 µM
RXF-631 renal
  TGI: > 100 µM
UACC-257 melanoma
  TGI: > 100 µM
RPMI-8226 leukemia
  TGI: 27.9 µM
HCT-15 colon
  TGI: > 100 µM
OVCAR-5 ovarian
  TGI: > 100 µM
SNB-78 CNS
  TGI: > 100 µM
ACHN renal
  TGI: > 100 µM
XF 498 CNS
  TGI: > 100 µM
HT29 colon
  TGI: > 100 µM
SF-268 CNS
  TGI: > 100 µM
M19-MEL melanoma
  TGI: > 100 µM
A498 renal
  TGI: > 100 µM
CAKI-1 renal
  TGI: > 100 µM
SK-MEL-2 melanoma
  TGI: > 100 µM
SF-295 CNS
  TGI: > 100 µM
786-0 renal
  TGI: > 78.6 µM
UACC-62 melanoma
  TGI: > 100 µM
SNB-75 CNS
  TGI: > 100 µM
SW-620 colon
  TGI: > 100 µM
EKVX NSCLC
  TGI: > 100 µM
U251 CNS
  TGI: > 100 µM
SNB-19 CNS
  TGI: > 100 µM
OVCAR-3 ovarian
  TGI: > 100 µM
DLD-1 colon
  TGI: > 100 µM
SF-539 CNS
  TGI: > 100 µM
IGROV1 ovarian
  TGI: > 100 µM
HCC-2998 colon
  TGI: > 100 µM
UO-31 renal
  TGI: > 100 µM
MALME-3M melanoma
  TGI: > 100 µM
LXFL 529 NSCLC
  TGI: > 100 µM
TK-10 renal
  TGI: > 100 µM
SK-OV-3 ovarian
  TGI: > 100 µM
DMS 273 small cell lung
  TGI: > 100 µM
HL-60(TB) leukemia
  TGI: > 70 µM
NCI-H226 lung
  TGI: > 100 µM
OVCAR-4 ovarian
  TGI: 44.4 µM
KM20L2 colon
  TGI: > 100 µM
SK-MEL-5 melanoma
  TGI: > 100 µM
